Results taken from patent US20050032713A1, “Platelet-activating factor antagonists as analgesic, anti-inflammatory, uterine contraction inhibiting, and anti-tumor agents” (priority 2002, published 2005).
“Also recorded” adds a separate entry of the source. Where two headings read alike, the source gives them in different places.

How the values were obtained:
[1] = system: formalin-induced nociception; assay: Formalin test, systemic (i.p.) administration; type: in vivo, rat; conditions: for nociceptive response (paw elevation time), early phase: 1-10 minutes post-formalin; for nociceptive response (paw elevation time), early phase / nociceptive response (paw elevation time), late phase: 10, 1 or 0.1 mg/kg i.p. 40 minutes prior to formalin; for nociceptive response (paw elevation time), late phase: 10-60 min post-formalin, vs control-treated rats; for dose-response relationship of decrease in nociceptive behavior: three doses 10, 1, 0.1 mg/kg i.p.
Procedure: Sixty male Sprague Dawley rats weighing 300-350 g (Taconic Labs, Canada) were housed in groups of 2-3 per cage, in polycarbonate cages. Animals were maintained under standard environmental conditions (room temperature: 20-20° C.; relative humidity: 55-60%; light/dark schedule: 12/12 hr) with free access to standard laboratory chow and tap water.
BN 50730 (Biomeasure; Milford, Mass.) and BN 52021 (Biomol) were dissolved in 45% hydroxypropyl-B-cyclodextrin in distilled water (HBC). Drugs (at doses of 10, 1, or 0.1 mg/kg) or vehicle were administered intraperitoneally (i.p.) 40 minutes prior to formalin injection. The doses chosen were based on those found to produce central effects after their peripheral administration.
Experiments were carried out in accordance with The National Institutes of Health Guide for the Care and Use of Laboratory Animals. Behavioral testing was carried out in a blind manner. Nociceptive responses were examined in the formalin test described previously, (Dubisson et al., The formalin test: a quantitative study of the analgesic effects of morphine, meperidine, and brain stimulation of rats and cats. Pain 4 (1977) 161-174). In brief, animals were placed in a clear Plexiglas® formalin test box (30 cm×30 cm×30 cm), with a mirror positioned at a 45° angle below the floor allowing for unobstructed observation of the animal's paw. Following a 10-min habituation period, animals were removed from the formalin box, at which time 50 μl of 1% formalin was injected subcutaneously (s.c.) into the plantar surface of the right hind paw with a 27-gauge needle. The amount of time that each rat elevated the injected paw was recorded in five-min intervals during the […] period following formalin injection. Each animal was used once.
The 60-min formalin test produced a biphasic response consisting of an initial, rapidly decaying acute phase (early phase, 1-10 minutes after injection) followed by a slow rising and long-lived tonic phase (late phase, 15-60 minutes after injection). Typically animals elevated their paws following injection (i.e. the early phase) followed by a reduction in this behavior. Approximately 15-20 minutes after injection, the inflammatory late phase began, and animals again elevated their paws to varying degrees for the remainder of the testing period. The amount of time animals elevated their injected paw was used as a behavioral measure of pain.
Data were expressed as means+/−SEM, and p values <0.05 were considered statistically significant. Treatment groups were compared with vehicle-controls using one-way analysis of variance (ANOVA) followed by Fischer's PLSD post-hoc test to compare between groups if overall significance was found by ANOVA.

[2] = system: formalin-induced nociception; assay: Formalin test, intra-hippocampal injection; type: in vivo, rat
Procedure: (§1) The day prior to formalin testing, rats were placed in the boxes for a 15 min habituation period. The day of testing, vehicle or PAF antagonists were administered and the rats were placed in the boxes for 20 min. At this time, animals were removed from the box, and 50 μl of 1% formalin (0.4% formaldehyde) was injected subcutaneously into the plantar surface of the right hind paw with a 27-gauge needle. Immediately after injection, each animal was exposed to the open field box for 60 min and the amount of time they elevated their injected paw was recorded as described for previous Examples.
(§2) Upon completion of testing, animals were overdosed with sodium pentobarbitol and perfused with saline followed by 10% formalin solution. Brains were removed, fixed, and cut into 20-μm coronal sections throughout the cannula tract. Sections were then mounted, stained with cresyl violet, and coverslipped. […] The behavioral data for 4 rats were discarded from the study due to incorrect cannulae placement.
(§3) Data were expressed as means+/−SEM and p values <0.05 were considered statistically significant. Experimental groups were compared using a one-way analysis of variance (ANOVA) with repeated measures (5 min blocks of time) followed by Scheffe's post-hoc test. Independent t-tests were used to assess the effects of the PAF antagonists on the individual 5 min bins of time post-formalin as well.

[3] = system: astrocyte-enriched cortical cell cultures; assay: Effect of PAF antagonists on mc-PAF-, lyso-PAF- and AA-induced PGE2 release from astrocytes; type: cell-based, rat; conditions: for mc-PAF-induced PGE2 release: antagonist added 30 min before mc-PAF (1 μM), 30 min, BN 50730 0.1-100 μM, BN 52021 and CV 6209 1-50 μM; for AA-induced PGE2 release / lyso-PAF-induced PGE2 release: antagonist added 30 min prior
Procedure: (§4) All experimental protocols were approved by the Massachusetts Institute of Technology institutional review committee and meet the guidelines of the National Institutes of Health. Dissociated astrocytes were cultured from cortices of postnatal day 1-2 rat pups (as described by K. D. McCarthy, et al., Preparation of separate astroglial and oligodendroglial cell cultures from rat cerebral tissue, J. Cell Biol. 85 (1980) 890-902, with minor modifications R. K. K. Lee, et al., Metabolic glutamate receptors increase amyloid precursor protein processing in astrocytes: inhibition by cyclic AMP, J. Neurochem. 68 (1997) 1830-1835.) In brief, cells from dissociated cortices were plated onto poly-L-lysine coated 35- or 100 mm culture dishes. The initial culture media, minimal essential medium (MEM, Gibco-Life Technologies; Rockville, Md.) containing 15% horse serum (BioWhittaker; Walkersville, Md.), were aspirated 2-5 h after plating to remove unattached cells and debris, and replaced with MEM containing 5% fetal bovine serum (FBS, BioWhittaker; Walkersville, Md.). Half the medium was replaced with MEM/5% FBS twice weekly. Astrocytes were kept at 37° C. in a humidified 5% CO2/95% air incubator for 9-15 days, by which time the cultures were confluent and could be used for experiments.
(§5) Mc-PAF (Biomol; Plymouth Meeting, PA) was dissolved in methanol at a stock concentration of 10 mM. PAF-16, PAF-18, lyso-PAF, AA (Cayman Chemicals), lyso-PC and PC (Sigma) were dissolved in ethanol at stock concentrations of 10 mM. All stock solutions of lipids were stored at −80° C. and were used within 6 weeks of reconstitution. BN 52021 and CV 6209 (Biomol) were dissolved in ethanol. These PAF antagonists were stored at −20° C. in stock concentrations of 100 mM. BN 50730 (Biomeasure; Milford, Mass.) was dissolved in 45% hydroxy-B-cyclodextrin (HBC). All agents were diluted in warned serum-free medium prior to cell stimulation. Equal amounts of vehicle was added to control cells.
(§6) Cells used for all experiments were established in vitro 9-15 days prior to use in experiments and were over 95% confluent. Serum-containing media were changed every 3-4 days. Cells were serum-deprived 24 hours prior to experimental treatments. Where treatment with PAF antagonists is indicated, these compounds were added 30 minutes prior to the addition of other agents.
(§7) PGE2 levels were measured by ELISA according to manufacturer's instructions (Cayman Chemicals, Ann Arbor, Mich.). Since the amount of PGE2 in fresh medium was negligible, (J. Luo, et al., Transforming growth factor B1 regulates the expression of cyclooxygenase in cultured cortical astrocytes and neurons, J. Neurochem. 71 (1998) 526-534), direct assays of the PGE2 concentration in cell-conditioned medium was used as a measurement of PGE2 secretion by cultured cells. Results were derived from at least 3 separate experiments, assayed in duplicate or triplicate (n=6-8). The reliable detection limit of this assay (i.e. sensitivity) averaged 14+/−6 pg of PGE2.

[4] = system: formalin-induced nociception; assay: Formalin test, injection into the lateral ventricle; type: in vivo, rat; conditions: for nociceptive response (paw elevation), group effect: lateral ventricle, 10, 1 or 0.1 μg, 20 min prior to formalin, ANOVA
Procedure: Animals were anesthetized (50 mg/kg sodium pentobarbitol), and unilateral guide cannulae (23 gauge) were implanted into the lateral ventricle. The guide cannulae were attached to the skull using jeweler's screws and dental acrylic. After surgery, stylets were inserted and left in place to ensure cannula patency. The formalin test was conducted 7-10 days post-surgery.
as §1, §2, §3

[5] = system: formalin-induced nociception; assay: Formalin test, intrathecal injection (spinal cord); type: in vivo, rat; conditions: for nociceptive response: injected intrathecally (into the spinal cord), 10, 1 or 0.1 μg, 20 minutes prior to formalin
Procedure: as §1, §3

COX-1 = COX-1 protein level after mc-PAF stimulation (immunocytochemical and Western blot analyses); type: cell-based, rat; conditions: within 30 min of mc-PAF stimulation; data not shown
[6] = system: astrocyte-enriched cortical cell cultures
[7] = system: astrocyte-enriched cortical cell cultures; assay: PGE2 release (ELISA) from astrocyte-enriched cortical cell cultures exposed to PAF analogs, related lipids or AA; type: cell-based, rat
Procedure: as §4, §5, §6, §7

[8] = system: primary cortical astrocytes; assay: Effect of COX inhibitors on mc-PAF-induced PGE2 release from primary astrocytes (Example 3); type: cell-based, rat; conditions: mc-PAF 0.001 to 1 μM, 30 min
Procedure: Mc-PAF (Cayman Chemical, Ann Arbor, Mich.) was dissolved in ethanol at a stock concentration of 10 mM. Indomethacin, piroxicam, NS-398 (Biomol; Plymouth Meeting, Mass.), and SC-560 (Cayman Chemical) were dissolved in 45% hydroxy-β-cyclodextrin (HBC; Sigma, St. Louis, Mo.). Cells were serum-deprived for 24 hrs prior to experimental treatments to induce quiescence. Where treatment with inhibitors is indicated, these compounds were added 30 min prior to the addition of mc-PAF.
Direct assay of the PGE2 concentration in cell-conditioned medium was used as an index of PGE2 secretion by primary astrocytes. PGE2 levels were measured by ELISA according to manufacturer's instructions (Cayman Chemicals, Ann Arbor, Mich.), as described.
Results were derived from at least 3 separate experiments, assayed in duplicate or triplicate (n=6−8). Data were expressed as means+/−SEMs. Statistical analyses were performed using ANOVAs for comparisons between groups, followed by Fischer's PLSD post hoc comparisons by means contrast. p values <0.05 were considered statistically significant.

COX-2 = COX-2 protein level after mc-PAF stimulation (immunocytochemical and Western blot analyses); type: cell-based, rat; conditions: within 30 min of mc-PAF stimulation; data not shown

| SMILES | nociceptive response (paw elevation time), early phase [1] | nociceptive response (paw elevation time), late phase [1] | dose-response relationship of decrease in nociceptive behavior [1] | nociceptive behavior during the tonic or late phase [2] | mc-PAF-induced PGE2 release [3] | AA-induced PGE2 release [3] | lyso-PAF-induced PGE2 release [3] | nociceptive response (paw elevation), group effect [4] | nociceptive response [5] | further results |
| --- | --- | --- | --- | --- | --- | --- | --- | --- | --- | --- |
| COc1ccc(NC(=S)N2CCc3c(sc4c3C(c3ccccc3Cl)=NCc3nnc(C)n3-4)C2)cc1 [BN 50730] | not significantly affected | significantly shorter paw elevation times; also recorded: decreased nociceptive behavior | a dose-response relationship was not revealed | not | attenuates; also recorded: prevented; also recorded: completely abolished | significantly attenuated; also recorded: only attenuated; also recorded: attenuates | significantly attenuated; also recorded: completely abolished; also recorded: attenuates | not significantly affected | decreased the nociceptive response | basal release of PGE2 ([3]; higher concentrations of BN 50730): reduce the basal release of PGE2; comparative efficacy when administered to the spinal cord ([5]; administered to the spinal cord (Example 4)): more effective than BN 52021 |
| C[C@@H]1C(=O)O[C@H]2[C@H](O)[C@@]34[C@H]5C[C@@H](C(C)(C)C)[C@]36[C@@H](OC(=O)[C@@H]6O)O[C@@]4(C(=O)O5)[C@@]12O [BN 52021, ginkolide B] | not significantly affected | significantly shorter times; also recorded: decreased nociceptive behavior | a dose-response relationship was not revealed | decreases nociceptive behavior | no significant effect; also recorded: did not significantly influence; also recorded: do not attenuate | had no effect | had no effect | significantly affected | not | PGE2 release, antagonist administered alone ([3]; no mc-PAF): PGE2 release was increased; comparative efficacy when administered to the brain ([4]; administered to the brain (Example 4)): more effective than BN 50730; paw elevation at 50 min post-formalin ([4]; lateral ventricle, 1 μg): decreased paw elevation; levels of paw elevation between 30 and 45 min post-formalin ([4]; lateral ventricle, 10 and 1 μg, independent t-tests): significantly attenuated; nociceptive responses compared with control-treated rats ([4]; lateral ventricle, 10 or 1 μg, Scheffe's post-hoc): significantly diminished |
| CCCCCCCCCCCCCCCCOC[C@H](COP(=O)([O-])OCC[N+](C)(C)C)OC(=O)NC [mc-PAF, methylcarbamyl-PAF] |  |  |  |  |  |  |  |  |  | COX-1 protein levels (COX-1): did not increase; toxicity to cells ([6]; 1 μM mc-PAF): does not appear to have toxic effects; toxicity to cells ([6]; 10 μM mc-PAF, 24 hours): cytologic evidence of toxicity; time at which PGE2 levels returned to baseline ([7]; 1 μM mc-PAF): ≤ 12 h; time of maximum mobilization of PGE2 ([7]; 1 μM mc-PAF): 30 min; time of second, smaller peak of PGE2 release ([7]; 1 μM mc-PAF): 8 h; time to first observed increase in PGE2 release ([7]; 1 μM mc-PAF): ≤ 5 min; PGE2 release over time ([7]; 1 μM mc-PAF, 37° C., various times): time-dependent increase; PGE2 release into the conditioned media ([7]; 30 min, 37° C., various concentrations): concentration-dependent increases; release of PGE2 into the conditioned media [8]: concentration-dependent increases; COX-2 protein levels (COX-2): did not increase |
